In patent US8278359B2, “Compositions containing amines and use thereof to treat acne or reduce the appearance of oil or pores on the skin” (Johnson & Johnson Consumer Companies, Inc., priority 2005, dated 2012):

Key:
Human keratinocytes = experiment: Electric Cell-substrate Impedance Sensing (ECIS) capacitance, keratinocyte contraction; assay type: cell-based; conditions: capacitance integrated over 5 hrs, 40,000 Hz, pH 7.2-7.3
Description: Electrical changes due to the presence of a cell layer can be used to calculate cell morphological parameters including the barrier function of the cell layer (the spacing between the ventral side of the cell and the substratum) and the cell membrane capacitance (Giaever and Keese, Proceedings of National Academy of Sciences 88, 7896, 1991).
Current flowing between a reference electrode, onto which cells or cell cultures may be attached, and a larger counter electrode using normal culture medium as the electrolyte can be used to detect changes in cell morphological parameters. In the absence of cells on the electrode, the current flows unrestrained from the surface of the electrodes. In the presence of cells attached and spread upon the electrode, the current must now flow in the spaces under and between the cells, as the cell membrane act as insulators.
The electrical changes of living, viable cells can be sampled rapidly, in real time, over an extended period of time, and the measurements are the measurement is non-invasive. An example of this technology is the Electric Cell-substrate Impedance Sensing System (ECIS) available from Applied Biophysics (Troy, N.Y.). […]
Human keratinocytes and Epilife culture media (Cascade Biologics, Portland, Oreg.) were cultured at 37° C. in a humidified atmospheres of 5% CO2/95% air. […] Capacitance changes (in nanofarads, nF) of keratinocytes were measured using a Electric Cell-substrate Impedance Sensing System (ECIS) Model 1600R (Applied Biophysics, Troy, N.Y.) using the method of Wegener and co-workers (Wegener J, Keese C R, Giaever I, Exp Cell Res. 259:158-166, 2000) at a frequency of 40,000 Hz. Capacitance readings are inversely related to the contact area of a cell onto the ECIS electrode array, the greater the cell area contacting the electrode the smaller the capacitance readings (Wegener J, Keese C R, Giaever I, Exp Cell Res. 259:158-166, 2000). Conversely as a cell contracts or shrinks, the contact area of the cell onto the ECIS electrode array decreases, resulting in an increase in the capacitance readings. […]

IL-2 (Interleukin-2) = experiment: PHA-stimulated peripheral blood lymphocyte cytokine release: IL-2; assay type: cell-based; conditions: Homo sapiens, 48 h, read-out: IL-2 % inh.
Description: The ability of various amines to affect the inflammatory responses was illustrated by its ability to reduce the production of cytokines by human lymphocytes stimulated with the T-cell receptor (TCR) activating agent phytohaemagglutinin (PHA) in the following assay.
Human leukocytes were collected from a healthy adult […] via leukopheresis, and adjusted to a density Of 1×10^6 cells/mL in serum free lymphocyte growth medium (ExVivo-15, Biowhittaker, Walkersville, Md.). PBLs were stimulated with 10 μg/mL PHA in the presence or absence of test samples following published methods (Hamamoto Y., et al. Exp Dermatol 2:231-235, 1993). The following compounds were evaluated N,N,N′,N′-Tetrakis(2-hydroxypropyl)ethylenediamine (THPED, available from BASF under the tradename “Quadrol” or “Neutrol”), N,N,N,N-Tetramethylethylenediamine (TEMED, available from Pfaltz & Bauer Chemicals (Waterbury, Conn.)), and Diethylenetriamine (available from Sigma-Aldrich) Following a 48 hour incubation at 37° C. with 5% CO2, the supernatant was removed and evaluated for cytokine content using commercially available multiplex cytokine detection kit.

tyrosinase = experiment: Tyrosinase activity in lysates of treated B16 cells (DOPA, absorbance 490 nm); assay type: cell-based, murine; conditions: pH 7.2, B16 cells 48 hours, activity at 3-hours, normalized for total protein
Description: THPED was also tested for its ability to induce tyrosinase activity in B16 cells by spectroscopic measuring of the final product, melanin. B16 cells were treated with THPED at different concentrations at pH 7.2 for 48 hours and cells were then lysed in 250 μl of PBS containing 1% Triton X-100 (Sigma, St. Louis, Mo.). The lysates were collected and centrifuged at 14,000 rpm for 5 minutes at 4° C. to pellet any insoluble material. Lysates (100 μl) were transferred to a 96 well assay plate (Corning Costar, San Diego, Calif.) and mixed with 100 μl of 0.1% (w/v) DOPA in PBS. The absorbance at 490 nm was then monitored from 0 to 12 hours using a VersaMax Plate Spectrophotometer (Molecular Devices, Sunnyvale, Calif.) and SoftMax Pro analytical software (Molecular Devices, Sunnyvale, Calif.). The tyrosinase activities were normalized for total protein using the BioRad Dc Protein Assay (Bio Rad, Hercules, Calif.).

For CC(O)CN(CCN(CC(C)O)CC(C)O)CC(C)O (centres unmarked) [THPED, N,N,N′,N′-Tetrakis(2-hydroxypropyl)ethylenediamine], the “Electrical Capacitance Contraction of Human Keratinocytes (AUC, Mean ± Std Dev)” value (from here on “Electrical Capacitance Contraction”) (Human keratinocytes; 0.01% V/V) was 29.2 ± 3.2, the “Electrical Capacitance Contraction” value (Human keratinocytes; 0.05% V/V) was 35.1 ± 5.3 and the “Electrical Capacitance Contraction” value (Human keratinocytes; 0.1% V/V) was 44.5 ± 9.1. The inhibition at 10 µg/mL (IL-2 (Interleukin-2)) was 10.6%, the inhibition at 100 µg/mL (IL-2 (Interleukin-2)) was 41.3% and the “% tyrosinase activity relative to untreated control” value (tyrosinase; 0.01%) was 104.15%. For the same molecule, the “% tyrosinase activity relative to untreated control” value (tyrosinase; 0.025%) was 167.39% and the “% tyrosinase activity relative to untreated control” value (tyrosinase; 0.05%) was 201.90%.
